Values quoted from earlier work in patent US20210198302A1, “OLIGOSACCHARIDE COMPOSITIONS AND METHODS OF USE THEREOF FOR REDUCING AMMONIA LEVELS” (Kaleido Biosciences, Inc., priority 2018, published 2021).

Tested on: OHE patients
Conditions: administered in combination with lactulose

CO[C@H]1/C=C/O[C@@]2(C)Oc3c(C)c(O)c4c(O)c(c5c(nc6cc(C)ccn65)c4c3C2=O)NC(=O)/C(C)=C\C=C\[C@H](C)[C@H](O)[C@@H](C)[C@@H](O)[C@@H](C)[C@H](OC(C)=O)[C@@H]1C [rifaximin]
reduction of episodes of OHE: approximately 50%
